pIC50: −log10 of the molar value. Like-named read-outs stand apart in the source and are kept apart here.
Tests used:
[1] = biological target: GST-RIPK2 fusion protein (human RIPK2 amino acids 1-310) (Homo sapiens (Human), UniProt O43353); experiment: RIPK2 binding competition assay (TR-FRET, Tracer 199)
[2] = test system: NF-κB pathway (SEAP) in THP1-Dual cells; experiment: THP-1 Dual cell SEAP assay (L18-MDP stimulated); type: cell-based; details: read-out: NFkB THP1 IC50
[3] = read-out: RIPK2 IC50, RIPK2 binding competition assay

Sequence of GST-RIPK2 fusion protein (human RIPK2 amino acids 1-310) (O43353 1-310): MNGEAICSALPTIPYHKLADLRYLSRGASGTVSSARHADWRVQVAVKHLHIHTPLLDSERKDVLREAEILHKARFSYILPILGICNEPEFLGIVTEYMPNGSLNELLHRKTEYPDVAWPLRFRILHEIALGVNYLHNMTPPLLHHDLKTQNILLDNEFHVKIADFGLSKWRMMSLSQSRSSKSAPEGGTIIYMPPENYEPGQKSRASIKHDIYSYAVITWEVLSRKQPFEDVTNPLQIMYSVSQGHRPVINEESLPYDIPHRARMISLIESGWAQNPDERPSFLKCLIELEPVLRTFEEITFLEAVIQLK

`COc1cc2ncc(-c3cc(F)nc(NCc4cc[nH]c(=O)c4)c3)n2cc1S(=O)(=O)C(C)(C)C` [Example 199, 4-(((4-(6-(tert-butylsulfonyl)-7-methoxyimidazo[1,2-a]pyridin-3-yl)-6-fluoropyridin-2-yl)amino)methyl) pyridin-2(1H)-one] was tested. Which pIC50 [1] did it give?
Its pIC50 is 8.60 to 9.00.

And the pIC50 ([2]; Homo sapiens, THP1-Dual)?
The pIC50 was 6.60 to 7.30.

`COc1cc2ncc(-c3cc(F)nc(NCC4CCN(C)C(=O)C4)c3)n2cc1S(=O)(=O)C(C)(C)C` (centres unmarked) [Example 200, 4-(((4-(6-(tert-butylsulfonyl)-7-methoxyimidazo[1,2-a]pyridin-3-yl)-6-fluoropyridin-2-yl)amino)methyl)-1-methylpiperidin-2-one] was tested. Which pIC50 [1] did it give?
The pIC50 was 8.60 to 9.00.

What about the pIC50 ([2]; Homo sapiens, THP1-Dual) of the same compound?
The pIC50 was over 7.30.

Which results are given for `COc1cc2ncc(-c3cc(F)nc(NCC4(CO)CC4)c3)n2cc1S(=O)(=O)C(C)(C)C` [Example 201, (1-(((4-(6-(tert-butylsulfonyl)-7-methoxyimidazo[1,2-a]pyridin-3-yl)-6-fluoropyridin-2-yl)amino)methyl)cyclo-propyl)methanol]?
pIC50 [1]: 8.60 to 9.00; pIC50 ([2]; Homo sapiens, THP1-Dual): > 7.30

Which results are given for `COc1cc2ncc(-c3cc(F)nc(NCCO)c3)n2cc1S(=O)(=O)C(C)(C)C` [Example 202, 2-((4-(6-(tert-butylsulfonyl)-7-methoxyimidazo[1,2-a]pyridin-3-yl)-6-fluoropyridin-2-yl)amino)ethan-1-ol]?
pIC50 [1]: 8.60 to 9.00; pIC50 ([2]; Homo sapiens, THP1-Dual): > 7.30

What does the source list for `COc1cc2ncc(-c3cc(F)nc(NC[C@H](O)CO)c3)n2cc1S(=O)(=O)C(C)(C)C` [Example 203, (S)-3-((4-(6-(tert-butylsulfonyl)-7-methoxyimidazo[1,2-a]pyridin-3-yl)-6-fluoropyridin-2-yl)amino)propane-1,2-diol]?
pIC50 [1]: 8.60 to 9.00; pIC50 ([2]; Homo sapiens, THP1-Dual): 6.60 to 7.30

What does the source list for `COc1cc2ncc(-c3cc(F)nc(N[C@H]4CC[C@@H](O)CC4)c3)n2cc1S(=O)(=O)C(C)(C)C` [Example 206, (1s,4s)-4-((4-(6-(tert-butylsulfonyl)-7-methoxyimidazo[1,2-a]pyridin-3-yl)-6-fluoropyridin-2-yl)amino)cyclohexan-1-ol]?
pIC50 [1]: 8.60 to 9.00; pIC50 [2]: > 7.30

What does the source list for `COc1cc2ncc(-c3cc(F)nc(N4CCC(O)CC4)c3)n2cc1S(=O)(=O)C(C)(C)C` [Example 207, 1-(4-(6-(tert-butylsulfonyl)-7-methoxyimidazo[1,2-a]pyridin-3-yl)-6-fluoropyridin-2-yl)piperidin-4-ol]?
pIC50 [1]: 8.60 to 9.00; pIC50 ([2]; Homo sapiens, THP1-Dual): > 7.30

With `COc1cc2ncc(-c3cc(F)nc(NCC4(O)CC4)c3)n2cc1S(=O)(=O)C(C)(C)C` [Example 208, 1-(((4-(6-(tert-butylsulfonyl)-7-methoxyimidazo[1,2-a]pyridin-3-yl)-6-fluoropyridin-2-yl)amino)methyl) cyclopropan-1-ol] as the compound, how does the pIC50 [1] read?
Its pIC50 is 8.60 to 9.00.

And the pIC50 ([2]; Homo sapiens, THP1-Dual)?
Its pIC50 is over 7.30.

With `COc1cc2ncc(-c3cc(F)nc(N(C)CCCO)c3)n2cc1S(=O)(=O)C(C)(C)C` [Example 209, 3-((4-(6-(tert-butylsulfonyl)-7-methoxyimidazo[1,2-a]pyridin-3-yl)-6-fluoropyridin-2-yl)(methyl)amino) propan-1-ol] as the compound, how does the pIC50 [1] read?
Its pIC50 is 8.60 to 9.00.

What about the pIC50 ([2]; Homo sapiens, THP1-Dual) of the same compound?
The pIC50 was 6.60 to 7.30.

How did the pIC50 [1] turn out when `COc1cc2ncc(-c3cc(F)nc(NCCN4CCCC4=O)c3)n2cc1S(=O)(=O)C(C)(C)C` [Example 210, 1-(2-((4-(6-(tert-butylsulfonyl)-7-methoxyimidazo[1,2-a]pyridin-3-yl)-6-fluoropyridin-2-yl)amino)ethyl) pyrrolidin-2-one] was run?
The pIC50 was 8.60 to 9.00.

And the pIC50 ([2]; Homo sapiens, THP1-Dual)?
The pIC50 was 6.60 to 7.30.

How did the pIC50 [1] turn out when `COc1cc2ncc(-c3cc(F)nc(N4CCOCC4)c3)n2cc1S(=O)(=O)C(C)(C)C` [Example 211, 4-(4-(6-(tert-butylsulfonyl)-7-methoxyimidazo[1,2-a]pyridin-3-yl)-6-fluoropyridin-2-yl)morpholine] was run?
The pIC50 was 7.70 to 8.60.

And the pIC50 ([2]; Homo sapiens, THP1-Dual)?
Its pIC50 is 6.00 to 6.60.

What does the source list for `COc1cc2ncc(-c3cc(F)nc(NC4CCOCC4)c3)n2cc1S(=O)(=O)C(C)(C)C` [Example 212, 4-(6-(tert-butylsulfonyl)-7-methoxyimidazo[1,2-a]pyridin-3-yl)-6-fluoro-N-(tetrahydro-2H-pyran-4-yl)pyridin-2-amine]?
pIC50 [1]: 7.70 to 8.60; pIC50 ([2]; Homo sapiens, THP1-Dual): < 6.00

How did the pIC50 [1] turn out when `COc1cc2ncc(-c3cc(F)nc(NCCC4(O)COC4)c3)n2cc1S(=O)(=O)C(C)(C)C` [Example 213, 3-(2-((4-(6-(tert-butylsulfonyl)-7-methoxyimidazo[1,2-a]pyridin-3-yl)-6-fluoropyridin-2-yl)amino)ethyl)oxetan-3-ol] was run?
The pIC50 was 7.70 to 8.60.

And the pIC50 ([2]; Homo sapiens, THP1-Dual)?
Its pIC50 is 6.00 to 6.60.

How did the pIC50 [1] turn out when `COc1cc2ncc(-c3cc(F)c(C#N)c(NCCCO)c3)n2cc1S(=O)(=O)C(C)(C)C` [Example 214, 4-(6-(tert-butylsulfonyl)-7-methoxyimidazo[1,2-a]pyridin-3-yl)-2-fluoro-6-((3-hydroxypropyl)amino) benzonitrile] was run?
Its pIC50 is 7.70 to 8.60.

What about the pIC50 ([2]; Homo sapiens, THP1-Dual) of the same compound?
Its pIC50 is 6.60 to 7.30.

What does the source list for `COc1cc2ncc(-c3cc(N)nc(F)c3)n2cc1S(=O)(=O)C(C)(C)C` [Example 215, 4-(6-(tert-butylsulfonyl)-7-methoxyimidazo[1,2-a]pyridin-3-yl)-6-fluoropyridin-2-amine]?
pIC50 [1, 3]: > 9.00; pIC50 ([2]; Homo sapiens, THP1-Dual): > 7.30

Which results are given for `COc1ccc(CNc2cc(-c3cnc4cc(OC)c(S(=O)(=O)C(C)(C)C)cn34)cc(F)n2)cc1` [Example 216]?
pIC50 [1, 3]: > 9.00; pIC50 ([2]; Homo sapiens, THP1-Dual): 6.60 to 7.30

What does the source list for `COc1cc2ncc(-c3cc(F)nc(N[C@H](C)CO)c3)n2cc1S(=O)(=O)C(C)(C)C` [Example 221, (2R)-2-({6-fluoro-4-[7-methoxy-6-(2-methylpropane-2-sulfonyl)imidazo[1,2-a]pyridin-3-yl]pyridin-2-yl}amino)propan-1-ol]?
pIC50 [1]: 8.60 to 9.00; pIC50 ([2]; Homo sapiens, THP1-Dual): > 7.30

What does the source list for `COc1cc2ncc(-c3cc(F)nc(N[C@@H](C)CO)c3)n2cc1S(=O)(=O)C(C)(C)C` [Example 222, (2S)-2-({6-fluoro-4-[7-methoxy-6-(2-methylpropane-2-sulfonyl)imidazo[1,2-a]pyridin-3-yl]pyridin-2-yl}amino)propan-1-ol]?
pIC50 [1]: 8.60 to 9.00; pIC50 ([2]; Homo sapiens, THP1-Dual): > 7.30

`COc1cc2ncc(-c3cc(F)nc(N4CCN(C)CC4)c3)n2cc1S(=O)(=O)C(C)(C)C` [Example 223, 1-{6-fluoro-4-[7-methoxy-6-(2-methylpropane-2-sulfonyl)imidazo[1,2-a]pyridin-3-yl]pyridin-2-yl}-4-methylpiperazine] was tested. Which pIC50 [1] did it give?
Its pIC50 is 7.70 to 8.60.

What about the pIC50 ([2]; Homo sapiens, THP1-Dual) of the same compound?
The pIC50 was 6.60 to 7.30.

Which results are given for `COc1cc2ncc(-c3cc(F)nc(NCC(C)(C)O)c3)n2cc1S(=O)(=O)C(C)(C)C` [Example 224, 1-({6-fluoro-4-[7-methoxy-6-(2-methylpropane-2-sulfonyl)imidazo[1,2-a]pyridin-3-yl]pyridin-2-yl}amino)-2-methylpropan-2-ol]?
pIC50 [1]: 8.60 to 9.00; pIC50 ([2]; Homo sapiens, THP1-Dual): > 7.30

How did the pIC50 [1] turn out when `COc1cc2ncc(-c3cc(F)nc(NC[C@@H](C)O)c3)n2cc1S(=O)(=O)C(C)(C)C` [Example 226, (2R)-1-({6-fluoro-4-[7-methoxy-6-(2-methylpropane-2-sulfonyl)imidazo[1,2-a]pyridin-3-yl]pyridin-2-yl}amino)propan-2-ol] was run?
The pIC50 was 8.60 to 9.00.

And the pIC50 ([2]; Homo sapiens, THP1-Dual)?
Its pIC50 is over 7.30.

With `COc1cc2ncc(-c3cc(F)nc(NC[C@H](C)O)c3)n2cc1S(=O)(=O)C(C)(C)C` [Example 227, (2S)-1-({6-fluoro-4-[7-methoxy-6-(2-methylpropane-2-sulfonyl)imidazo[1,2-a]pyridin-3-yl]pyridin-2-yl}amino)propan-2-ol] as the compound, how does the pIC50 [1] read?
Its pIC50 is 8.60 to 9.00.

And the pIC50 ([2]; Homo sapiens, THP1-Dual)?
Its pIC50 is over 7.30.

Reference: patent US20250346593A1, “IMIDAZO(1,2-1)PYRIDINE DERIVATIVES AS RIPK2 INHIBITORS” (Interline Therapeutics, Inc., priority 2022, published 2025)
